# Experimental data published in patent publication US20130116215A1, “COMBINATION THERAPIES FOR TREATING NEUROLOGICAL DISORDERS” (priority 2011, published 2013).
# Entries after “also recorded” stand apart in the source; their conditions may differ. Read-outs that look alike come from different tables or passages of the source.
# What was measured:
# [1] = biological target: T1, Acetylcholinesterase (AChE) (Electrophorus electricus, UniProt O42275); assay type: biochemical
# T1 construct: purchased Invitrogen, Carlsbad, Calif
# T1 sequence (O42275 24-633): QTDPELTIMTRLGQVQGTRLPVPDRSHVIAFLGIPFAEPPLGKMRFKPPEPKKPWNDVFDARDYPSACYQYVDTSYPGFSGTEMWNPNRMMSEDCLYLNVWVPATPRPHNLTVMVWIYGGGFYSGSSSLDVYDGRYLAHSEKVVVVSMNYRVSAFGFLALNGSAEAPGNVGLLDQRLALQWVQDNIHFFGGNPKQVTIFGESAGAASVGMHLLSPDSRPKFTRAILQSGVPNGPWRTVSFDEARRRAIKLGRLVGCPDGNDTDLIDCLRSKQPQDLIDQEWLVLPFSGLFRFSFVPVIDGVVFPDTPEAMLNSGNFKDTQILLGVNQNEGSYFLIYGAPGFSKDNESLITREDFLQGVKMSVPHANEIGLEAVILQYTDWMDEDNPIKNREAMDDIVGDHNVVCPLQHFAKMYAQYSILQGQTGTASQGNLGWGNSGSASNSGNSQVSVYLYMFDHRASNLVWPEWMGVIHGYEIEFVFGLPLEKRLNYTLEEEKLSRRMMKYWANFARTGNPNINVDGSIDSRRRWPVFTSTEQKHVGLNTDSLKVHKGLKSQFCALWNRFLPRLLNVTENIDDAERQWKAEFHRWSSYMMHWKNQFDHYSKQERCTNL
# Method: (§1) Current therapy for AD is based on improving the brain synaptic availability of acetylcholine by using acetylcholinesterase inhibitors (AChEls). Therefore, potential drug effect on neuronal dysfunction was studied with an in vitro Acetylcholinesterase (AChE) assay using Amplex Red Acetylcholine/Assay Kit (Invitrogen, Carlsbad, Calif.). The efficacy of ridogrel on memory was obtained running dose-response (10-100 μM). 10 μM Eserine, an anticholinesterase drug, was used as positive control.
# as §1, with “diminazene aceturate” for “ridogrel”, “(1-500” for “(10-100”
# TAU phosphorylation = test: phospho-tau and Tau ELISA assay in tau-transfected HT4 cells; assay type: cell-based; conditions: tau-transfected mouse hippocampal-derived HT4 cell line
# Method: Docetaxel is a clinically well established anti-mitotic chemotherapy medication used mainly for the treatment of breast, ovarian and non-small cell lung cancer which had shown close proximity with Tau motive. Neurofibrillary tangles, a hallmark of AD, are intracellular abnormally aggregates of hyperphosphorylated protein TAU [19]. In that sense, Tau pathology was evaluated on tau-transfected in a mouse hippocampal-derived HT4 cell line using a phospho-tau and Tau ELISA assay (Sigma-aldrich, St Louis, Mo.). The level of TAU phosphorylation is used as an indicator of the degree of TAU pathology.
# [2] = test system: cells stably expressing wild-type presenilin-1 an Aβ precursor protein; test: Aβ1-40 and Aβ1-42 ELISA on extracellular media of treated cells; assay type: cell-based
# Excerpt: The putative neurological effects of this drug have been confirmed experimentally using sensitive Aβ1-40 and Aβ1-42 ELISA kits (Wako, Osaka, Japan) on the extracellular media of treated and untreated cells stably expressing wild-type presenilin-1 an Aβ precursor protein. […] Aggregation and fibril formation of Aβ peptides are central events in the pathogenesis of Alzheimer's disease. Previous studies have established the ratio of Aβ1-40 to Aβ1-42 as an important factor in determining the fibrillogenesis, and toxicity of amyloid plaques.
# [3] = extracellular media, treated vs untreated cells
smiles,measurement,setting,value
O=C(O)CCCCO/N=C(/c1cccnc1)c1cccc(C(F)(F)F)c1 [Ridogrel],inhibition of AChE,"[1]; dose-response 10-100 μM, inhibition with dose 100 to 25 μM",dose-dependent inhibition
"N=C(N)c1ccc(/N=N/Nc2ccc(C(=N)N)cc2)cc1 [Diminazene Aceturate, Diminazene aceturate]",inhibition of AChE,"[1]; dose-response 1-500 μM, inhibition with dose 500 to 10 μM",dose-dependent inhibition
CC(=O)O[C@@]12CO[C@@H]1C[C@H](O)[C@@]1(C)C(=O)[C@H](O)C3=C(C)[C@@H](OC(=O)[C@H](O)[C@@H](NC(=O)OC(C)(C)C)c4ccccc4)C[C@@](O)([C@@H](OC(=O)c4ccccc4)[C@H]21)C3(C)C [Docetaxel],TAU phosphorylation (pTAU/TAU ratio),TAU phosphorylation,significantly reduces
same,TAU phosphorylation (pTAU/TAU ratio),TAU phosphorylation; listed as docetaxel,reduces TAU phosphorylation
Cc1c(OCC(F)(F)F)ccnc1C[S+]([O-])c1nc2ccccc2[nH]1 (stereo not shown) [Lansoprazole],Aβ1-40 peptide production,[2]; [3],significantly increases
same,Aβ1-42 peptide production,[2]; [3],significantly increase
same,Aβ1-40/Aβ1-42 ratio,[2]; treated cells,significant reduction; also recorded: reduces
